In ChEMBL document CHEMBL1201862, “PubChem BioAssay data set” (2004):
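Compound exposure: 48 hours, 5 concentrations, 96-well plates. At the GI50, growth is halved.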 Calls of active or inactive are those of the source. Cut-off read from the data, not from the text of the source: active = GI50 up to about 1.1 µM and inactive = higher.

Legend:
Assay in all cases: inhibition of tumour cell growth, NCI panel, 48 h
[1] = tested on: 786-0
[2] = tested on: A549
[3] = tested on: ACHN
[4] = tested on: BT-549
[5] = tested on: CAKI-1
[6] = tested on: CCRF-CEM
[7] = tested on: COLO 205
[8] = tested on: DU-145
[9] = tested on: EKVX
[10] = tested on: HCT-116
[11] = tested on: HCT-15
[12] = tested on: HL-60
[13] = tested on: HOP-92
[14] = tested on: HT-29
[15] = tested on: Hs-578T
[16] = tested on: IGROV-1
[17] = tested on: KM12
[18] = tested on: M14
[19] = tested on: MCF7
[20] = tested on: MDA-MB-231
[21] = tested on: MDA-MB-435
[22] = tested on: MDA-N
[23] = tested on: MOLT-4
[24] = tested on: Malme-3M
[25] = tested on: NCI-H226
[26] = tested on: NCI-H23
[27] = tested on: NCI-H460
[28] = tested on: NCI-H522
[29] = tested on: NCI/ADR-RES
[30] = tested on: OVCAR-5
[31] = tested on: OVCAR-8
[32] = tested on: PC-3
[33] = tested on: RPMI-8226
[34] = tested on: RXF 393
[35] = tested on: SF-268
[36] = tested on: SF-295
[37] = tested on: SF-539
[38] = tested on: SK-MEL-2
[39] = tested on: SK-MEL-5
[40] = tested on: SK-OV-3
[41] = tested on: SN12C
[42] = tested on: SNB-19
[43] = tested on: SNB-75
[44] = tested on: SW-620
[45] = tested on: T47D
[46] = tested on: TK-10
[47] = tested on: U-251
[48] = tested on: UACC-257
[49] = tested on: UACC-62
[50] = tested on: UO-31
[51] = tested on: A498
[52] = tested on: HCC 2998
[53] = tested on: HOP-62
[54] = tested on: K562
[55] = tested on: LOX IMVI
[56] = tested on: OVCAR-3
[57] = tested on: OVCAR-4
[58] = tested on: SK-MEL-28
[59] = tested on: SR

For `NC(=O)CCC(CCC(N)=O)(CCC(N)=O)[N+](=O)[O-]`, the GI50 [1] was > 100 µM (inactive), the GI50 [2] was > 100 µM (inactive) and the GI50 [3] was > 100 µM (inactive). The GI50 [4] was > 100 µM (inactive), the GI50 [5] was > 100 µM (inactive) and the GI50 [6] was > 10 µM (inactive). The GI50 [7] was > 100 µM (inactive), the GI50 [8] was > 100 µM (inactive) and the GI50 [9] was > 100 µM (inactive). For the same compound, the GI50 [10] was > 100 µM (inactive), the GI50 [11] was greater than 100 µM and the GI50 [12] was > 100 µM (inactive). The GI50 [13] was > 100 µM (inactive), the GI50 [14] was > 100 µM (inactive) and the GI50 [15] was > 100 µM (inactive). For the same compound, the GI50 [16] was > 100 µM (inactive), the GI50 [17] was > 100 µM (inactive) and the GI50 [18] was > 100 µM (inactive). For the same compound, the GI50 [19] was > 100 µM (inactive), the GI50 [20] was > 100 µM (inactive) and the GI50 [21] was > 100 µM (inactive). For the same compound, the GI50 [22] was > 100 µM (inactive), the GI50 [23] was > 100 µM (inactive) and the GI50 [24] was > 100 µM (inactive). For the same compound, the GI50 [25] was 25.4 µM (inactive), the GI50 [26] was > 100 µM (inactive) and the GI50 [27] was > 100 µM (inactive). The GI50 [28] was 65.9 µM (inactive), the GI50 [29] was > 100 µM (inactive) and the GI50 [30] was > 100 µM (inactive). For the same compound, the GI50 [31] was > 100 µM (inactive), the GI50 [32] was > 100 µM (inactive) and the GI50 [33] was > 100 µM (inactive). For the same compound, the GI50 [34] was > 100 µM (inactive), the GI50 [35] was > 100 µM (inactive) and the GI50 [36] was > 100 µM (inactive). For the same compound, the GI50 [37] was > 100 µM (inactive), the GI50 [38] was > 100 µM (inactive) and the GI50 [39] was > 100 µM (inactive). For the same compound, the GI50 [40] was > 100 µM (inactive), the GI50 [41] was > 100 µM (inactive) and the GI50 [42] was 60.8 µM (inactive). The GI50 [43] was > 100 µM (inactive), the GI50 [44] was > 100 µM (inactive) and the GI50 [45] was > 100 µM (inactive). For the same compound, the GI50 [46] was > 100 µM (inactive), the GI50 [47] was > 100 µM (inactive) and the GI50 [48] was > 100 µM (inactive). For the same compound, the GI50 [49] was > 100 µM (inactive) and the GI50 [50] was > 100 µM (inactive).

With `Nc1c([N+](=O)[O-])cc2c3c(cccc13)CC2` the GI50 [1] was 57.4 µM (inactive), the GI50 [51] was 33.7 µM (inactive) and the GI50 [2] was 78.5 µM (inactive). For the same compound, the GI50 [3] was > 100 µM (inactive), the GI50 [4] was 74.6 µM (inactive) and the GI50 [5] was > 100 µM (inactive). The GI50 [6] was 90.6 µM (inactive), the GI50 [7] was 64.1 µM (inactive) and the GI50 [8] was 46 µM (inactive). For the same compound, the GI50 [9] was 26.7 µM (inactive), the GI50 [52] was > 100 µM (inactive) and the GI50 [10] was 39.1 µM (inactive). The GI50 [11] was 65.9 µM, the GI50 [12] was 74.6 µM (inactive) and the GI50 [53] was 74.6 µM (inactive). For the same compound, the GI50 [13] was > 100 µM (inactive), the GI50 [14] was 98.9 µM (inactive) and the GI50 [15] was > 100 µM (inactive). The GI50 [16] was > 100 µM (inactive), the GI50 [54] was > 100 µM (inactive) and the GI50 [17] was > 100 µM (inactive). The GI50 [55] was 65.2 µM (inactive), the GI50 [18] was > 100 µM (inactive) and the GI50 [20] was 38.9 µM (inactive). The GI50 [21] was 62.5 µM (inactive), the GI50 [22] was > 100 µM (inactive) and the GI50 [23] was 23.6 µM (inactive). For the same compound, the GI50 [25] was > 100 µM (inactive), the GI50 [26] was 55 µM (inactive) and the GI50 [27] was 54.1 µM (inactive). The GI50 [28] was 93.8 µM (inactive), the GI50 [29] was 40.8 µM (inactive) and the GI50 [56] was > 100 µM (inactive). For the same compound, the GI50 [57] was 47.8 µM (inactive), the GI50 [30] was > 100 µM (inactive) and the GI50 [31] was 71.3 µM (inactive). The GI50 [32] was > 100 µM (inactive), the GI50 [33] was 55.7 µM (inactive) and the GI50 [34] was 23.1 µM (inactive). For the same compound, the GI50 [35] was 83.6 µM (inactive), the GI50 [36] was 91.6 µM (inactive) and the GI50 [37] was 31.5 µM (inactive). The GI50 [58] was > 100 µM (inactive), the GI50 [38] was 51.3 µM (inactive) and the GI50 [39] was 53.2 µM (inactive). For the same compound, the GI50 [40] was 51.2 µM (inactive), the GI50 [41] was 62.8 µM (inactive) and the GI50 [42] was 86.3 µM (inactive). The GI50 [43] was > 100 µM (inactive), the GI50 [59] was 25.4 µM (inactive) and the GI50 [44] was 82.2 µM (inactive). The GI50 [45] was 30.1 µM (inactive), the GI50 [46] was 42.8 µM (inactive) and the GI50 [47] was 91 µM (inactive). The GI50 [48] was > 100 µM (inactive), the GI50 [49] was 85.1 µM (inactive) and the GI50 [50] was 42.5 µM (inactive).

For `CCCc1cc(=O)oc2c3c(c4c(c12)OC(C)(C)CC4)O[C@@H](C)[C@H](C)[C@H]3O`, the GI50 [1] was 5.37 µM (inactive), the GI50 [2] was 10.8 µM (inactive) and the GI50 [4] was 5.06 µM (inactive). The GI50 [5] was 35.1 µM (inactive), the GI50 [6] was 3.98 µM (inactive) and the GI50 [7] was 12.6 µM (inactive). The GI50 [8] was 17.8 µM (inactive), the GI50 [9] was 12.2 µM (inactive) and the GI50 [52] was 13.6 µM (inactive). For the same compound, the GI50 [10] was 8.89 µM (inactive), the GI50 [11] was 11.2 µM and the GI50 [53] was 14.9 µM (inactive). For the same compound, the GI50 [13] was 13.6 µM (inactive), the GI50 [14] was 8.3 µM (inactive) and the GI50 [15] was 15.8 µM (inactive). The GI50 [16] was 16.1 µM (inactive), the GI50 [54] was 2.79 µM (inactive) and the GI50 [17] was 12.4 µM (inactive). The GI50 [55] was 15.4 µM (inactive), the GI50 [18] was 11.8 µM (inactive) and the GI50 [19] was 12.6 µM (inactive). For the same compound, the GI50 [20] was 2.16 µM (inactive), the GI50 [21] was 5.94 µM (inactive) and the GI50 [22] was 2.69 µM (inactive). For the same compound, the GI50 [23] was 3.85 µM (inactive), the GI50 [24] was 14.4 µM (inactive) and the GI50 [25] was 15.2 µM (inactive). The GI50 [26] was 12.2 µM (inactive), the GI50 [27] was 8.49 µM (inactive) and the GI50 [29] was 9.4 µM (inactive). For the same compound, the GI50 [56] was 15.7 µM (inactive), the GI50 [57] was 10.1 µM (inactive) and the GI50 [30] was 12.7 µM (inactive). The GI50 [31] was 13.3 µM (inactive), the GI50 [32] was 4.23 µM (inactive) and the GI50 [33] was 4.35 µM (inactive). For the same compound, the GI50 [34] was 11.3 µM (inactive), the GI50 [35] was 15.1 µM (inactive) and the GI50 [36] was 13.5 µM (inactive). For the same compound, the GI50 [37] was 17.6 µM (inactive), the GI50 [58] was 15.6 µM (inactive) and the GI50 [38] was 14.6 µM (inactive). For the same compound, the GI50 [39] was 6.7 µM (inactive), the GI50 [40] was 17.6 µM (inactive) and the GI50 [41] was 4.22 µM (inactive). For the same compound, the GI50 [42] was 14 µM (inactive), the GI50 [43] was 10.3 µM (inactive) and the GI50 [44] was 15 µM (inactive). For the same compound, the GI50 [45] was 6.58 µM (inactive), the GI50 [47] was 11.8 µM (inactive) and the GI50 [48] was 4.94 µM (inactive). For the same compound, the GI50 [49] was 9.02 µM (inactive) and the GI50 [50] was 6.12 µM (inactive).
